In patent US20230135635A1, “INHIBITORS OF ULK1/2 AND METHODS OF USING SAME” (SALK INSTITUTE FOR BIOLOGICAL STUDIES, priority 2020, published 2023):

Target: T1, recombinant human ULK1 protein (1-649) (Homo sapiens, UniProt O75385)
T1 construct: recombinant human ULK1 protein (1-649, SignalChem #U01-11G); purchased SignalChem U01-11G
T1 sequence (O75385 1-649): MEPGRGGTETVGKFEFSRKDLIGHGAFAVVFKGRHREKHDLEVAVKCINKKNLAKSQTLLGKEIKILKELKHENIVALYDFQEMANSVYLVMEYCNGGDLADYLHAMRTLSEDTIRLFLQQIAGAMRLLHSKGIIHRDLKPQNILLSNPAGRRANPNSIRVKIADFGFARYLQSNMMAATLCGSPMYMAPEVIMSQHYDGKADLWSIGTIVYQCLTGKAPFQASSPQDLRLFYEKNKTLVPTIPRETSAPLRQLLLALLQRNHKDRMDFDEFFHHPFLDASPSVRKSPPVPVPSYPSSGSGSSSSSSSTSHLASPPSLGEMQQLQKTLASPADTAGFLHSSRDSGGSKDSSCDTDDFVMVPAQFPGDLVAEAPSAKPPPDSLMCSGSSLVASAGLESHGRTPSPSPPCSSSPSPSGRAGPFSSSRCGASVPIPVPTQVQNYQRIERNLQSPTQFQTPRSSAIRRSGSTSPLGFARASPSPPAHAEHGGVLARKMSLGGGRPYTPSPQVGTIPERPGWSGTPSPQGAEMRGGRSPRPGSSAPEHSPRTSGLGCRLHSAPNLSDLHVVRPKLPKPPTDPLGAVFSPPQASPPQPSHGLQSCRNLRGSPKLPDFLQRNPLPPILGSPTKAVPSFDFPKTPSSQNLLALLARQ
Experiment: ULK1 inhibition assay (ADP Glo)
Type: biochemical
Details: Table 1; 25 uM ATP, MBP substrate, one hour
Experimental: Illustrative compounds of Formula I and related analogs are shown in Table 1 (along with their respective IC50 values for ULK1 inhibition assays). For ADP Glo assay, IC50s are represented nM, with A representing IC50<1 nM, B representing 10 nM>IC50>1 nM, and C representing IC50>10 nM. NT indicates the compound was not tested. ULK1 inhibition assays were performed in a 5 uL reaction volume containing 2 ug/mL recombinant human ULK1 protein (1-649, SignalChem #U01-11G) and 80 ug/mL myelin basic protein (MBP, Sigma-Aldrich #M1891) in the presence of 25 uM ATP (Sigma-Aldrich A7699). ULK 1 inhibition was assessed after one hour. Compounds were tested in triplicate in a 16-dose IC50 mode with 3-fold serial dilution and a starting dose of 30 uM. Staurosporine, a non-selective protein kinase inhibitor, was used in the assay as a positive control.
According to another embodiment, the present disclosure provides methods of producing the above-defined compounds. The compounds may be synthesized using any suitable techniques. Advantageously, these compounds are conveniently synthesized from readily available starting materials. Synthetic chemistry transformations and methodologies useful in synthesizing the compounds described herein are known in the art and include, for example, those described in R. Larock, Comprehensive Organic Transformations (1989); T. W. Greene and P. G. M. Wuts, Protective Groups in Organic Synthesis, 2d. Ed. (1991); L. Fieser and M. Fieser, Fieser and Fieser's Reagents for Organic Synthesis (1994); and L. Paquette, ed., Encyclopedia of Reagents for Organic Synthesis (1995).). In general, synthesis and measurements of ULK1 inhibitory activity of the compounds described herein was performed using method analogous to those previously described in PCT International Application No. PCT/US2015/046777 which is hereby incorporated by reference in its entirety.

Row | SMILES | IC50
1 | CNC(=O)c1ccccc1Nc1nc(Nc2ccc3c(c2)CCN(CC(=O)N2CCOCC2)C3)ncc1Br [Compound A127, 2-{5-Bromo-2-[2-(2-morpholin-4-yl-2-oxo-ethyl)-1,2,3,4-tetrahydro-isoquinolin-6-ylamino]-pyrimidin-4-ylamino}-N-methyl-benzamide] | > 10 nM
2 | CNC(=O)c1ccccc1Nc1nc(Nc2ccc3c(c2)CCN(C(=O)N2CCN(C)CC2)C3)ncc1Br [Compound A128, 2-{5-Bromo-2-[2-(4-methyl-piperazine-1-carbonyl)-1,2,3,4-tetrahydro-isoquinolin-6-ylamino]-pyrimidin-4-ylamino}-N-methyl-benzamide] | > 10 nM
3 | CNC(=O)c1ccccc1Nc1nc(Nc2ccc3c(c2)CCN(Cc2ccc(OC)cc2)C3)ncc1Br [Compound A129, 2-{5-Bromo-2-[2-(4-methoxy-benzyl)-1,2,3,4-tetrahydro-isoquinolin-6-ylamino]-pyrimidin-4-ylamino}-N-methyl-benzamide] | > 10 nM
4 | CNC(=O)c1ccccc1Nc1nc(Nc2ccc3c(c2)CCN(Cc2cccnc2)C3)ncc1Br [Compound A130, 2-[5-Bromo-2-(2-pyridin-3-ylmethyl-1,2,3,4-tetrahydro-isoquinolin-6-ylamino)-pyrimidin-4-ylamino]-N-methyl-benzamide] | > 10 nM
5 | CNC(=O)c1ccccc1Nc1nc(Nc2ccc3c(c2)CCN(Cc2ccncc2)C3)ncc1Br [Compound A131, 2-[5-Bromo-2-(2-pyridin-4-ylmethyl-1,2,3,4-tetrahydro-isoquinolin-6-ylamino)-pyrimidin-4-ylamino]-N-methyl-benzamide] | > 10 nM
6 | CNC(=O)c1ccccc1Nc1nc(Nc2ccc3c(c2)CCN(C(=O)CCC(=O)O)C3)ncc1Br [Compound A134, 4-{6-[5-Bromo-4-(2-methylcarbamoyl-phenylamino)-pyrimidin-2-ylamino]-3,4-dihydro-1H-isoquinolin-2-yl}-4-oxo-butyric acid] | > 10 nM

The remaining lines, values ahead:

Row | IC50 | SMILES
7 | > 10 nM | CNC(=O)c1ccccc1Nc1nc(Nc2ccc3c(c2)CCN(C(=O)CN)C3)ncc1Br [Compound A132, 2-{2-[2-(2-Amino-acetyl)-1,2,3,4-tetrahydro-isoquinolin-6-ylamino]-5-bromo-pyrimidin-4-ylamino}-N-methyl-benzamide]
8 | > 10 nM | CNCC(=O)N1CCc2cc(Nc3ncc(Br)c(Nc4ccccc4C(=O)NC)n3)ccc2C1 [Compound A133, 2-{5-Bromo-2-[2-(2-methylamino-acetyl)-1,2,3,4-tetrahydro-isoquinolin-6-ylamino]-pyrimidin-4-ylamino}-N-methyl-benzamide]
9 | > 10 nM | CNC(=O)c1ccccc1Nc1nc(Nc2ccc3c(c2)CCN(C)C3)ncc1Br [Compound A135, 2-[5-Bromo-2-(2-methyl-1,2,3,4-tetrahydro-isoquinolin-6-ylamino)-pyrimidin-4-ylamino]-N-methyl-benzamide]
10 | > 10 nM | CNC(=O)c1ccccc1Nc1nc(Nc2ccc3c(c2)CCN(C(=O)CCN)C3)ncc1Br [Compound A136, 2-{2-[2-(3-Amino-propionyl)-1,2,3,4-tetrahydro-isoquinolin-6-ylamino]-5-bromo-pyrimidin-4-ylamino}-N-methyl-benzamide]
11 | > 10 nM | CNC(=O)c1ccccc1Nc1nc(Nc2ccc3c(c2)CCN(CC(C)O)C3)ncc1Br (stereo not shown) [Compound A138, 2-{5-Bromo-2-[2-(2-hydroxy-propyl)-1,2,3,4-tetrahydro-isoquinolin-6-ylamino]-pyrimidin-4-ylamino}-N-methyl-benzamide]
12 | > 10 nM | CNC(=O)c1ccccc1Nc1nc(Nc2ccc3c(c2)CCN(S(N)(=O)=O)C3)ncc1Br [Compound A140, 2-[5-Bromo-2-(2-sulfamoyl-1,2,3,4-tetrahydro-isoquinolin-6-ylamino)-pyrimidin-4-ylamino]-N-methyl-benzamide]
13 | > 10 nM | CNC(=O)c1ccccc1Nc1nc(Nc2ccc3c(c2)CCN(CCC(=O)O)C3)ncc1Br [Compound A141, 3-{6-[5-Bromo-4-(2-methylcarbamoyl-phenylamino)-pyrimidin-2-ylamino]-3,4-dihydro-1H-isoquinolin-2-yl}-propionic acid]
